From patent US7321074B1, “Melanocortin-3 receptor deficient cells, non-human transgenic animals and methods of selecting compounds which regulate body weight” (Merck & Co., Inc., priority 1999, dated 2008)

Assay: Peripheral MTII administration: food consumption in MC-3R−/− and WT mice
Conditions: single intraperitoneal injection, 10 mg/kg, n=9
Excerpt: Food intake measurements—MC-3R^−/−, MC-3R^+/−, and WT mice were separated into individual microisolator cages at approximately one month of age. For studies involving regular mouse chow (Teklad 7012; 5% fat, 19% protein, and 5% of fiber; 3.75 grams/Kcal and 14.8% Kcal. from fat), pellet food was provided in wire cage tops containing food hoppers and food was weighed weekly. For studies involving a high fat diet (Teklad 97070; 33.5% fat, 27.4% protein, and 26.5% carbohydrates; 60% calories from fat), ground food was provided in a glass jar located in the cage and the jar containing the food was weighed either daily or weekly.
Peripheral MTII administration—For seven consecutive days, individually-housed 23-25-week-old male MC-3R^−/− (n=9) and WT (n=9) mice received an intraperitoneal (ip) injection of a sterile 0.9% NaCl vehicle solution approximately 30 min before the onset of the dark phase of the light cycle. At the same time on the eighth consecutive day of the study, mice received an ip injection of MTII at a dose of 10 mg/kg delivered in vehicle. Body and food (Teklad 7012) weights were measured and recorded daily approximately 15 min prior to injection.

Substance: MTII
- reduction of food consumption over a 24-h period relative to a 2-day vehicle treatment baseline (male MC-3R−/− mice): 16.9±7.0 % reduction
- reduction of food consumption over a 24-h period relative to a 2-day vehicle treatment baseline (male WT mice): 11.1±4.3 % reduction
